Consider 15 molecules from patent US20150094229A1, “METHODS FOR THE SCREENING OF ANT[…]” (priority 2005, published 2015).

The subject of assay [1] is L,D-transpeptidase of E. faecium M512 (Ldtfm). The assay is described as follows: Standard radioactive exchange assay (Ac2-L-Lys-D-Ala and D-[14C]Ala). It counts as biochemical, Enterococcus faecium. The note with it: for use as donor: formation of radioactive peptides with D-[14C]Ala as the acceptor: 3 μg Ldtfm, 60 min, donor 1-5 mM. An excerpt: (§1) FIG. 9 (Ex FIG. 2). Identification and characterization of the L,D-transpeptidase of E. faecium M512. (A) Purification of the L,D-transpeptidase from an E. faecium M512 extract (lane 1) led to partial purification of a 48-kDa protein (lane 2). (B) The open reading frame for the 48-kDa protein was identified based on N-terminal sequencing ([…] [SEQ ID No 20], underlined) and similarity searches in the partial genome sequence of E. faecium. The partially purified 48-kDa protein corresponded to a proteolytic fragment since the sequence encoding its N-terminus was not preceded by a translation initiation codon. The upstream sequence contained a single likely translation initiation site (ACTTAAggag[…]atg [SEQ ID No 21]), consisting of an ATG initiation codon preceded by a putative ribosome binding site (lower case). The proteolytic cleavage removed the first 118 residues of the protein, including a cluster of hydrophobic residues at positions 13 to 28 (italicized), which could correspond to a membrane anchor. The C-terminus of Ldtfm (positions 340 to 466; bold) was related to a family of 341 sequences from eubacteria appearing in the Protein Families Database of Alignments under the pfam accession number PF03734. Ser439 and Cys442 (asterisks) are potential catalytic residues. (C) The portion of the open reading frame encoding the soluble protein partially purified form the E. faecium extract (positions 119 to 466) was cloned into E. coli and Ldtfm was purified with an overall yield of 3 mg per liter of culture. (D) The purified protein was active in an exchange reaction which assays for the capacity of the enzyme to catalyze cleavage of the L-Lys-D-Ala peptide bond of the model donor dipeptide substrate N^α,N^ε-diacetyl-L-lysyl-D-alanine (Ac2-L-Lys-D-Ala) and formation of a peptide bond between Ac2-L-Lys and D-[^14C]Ala. […] (F) The exchange assay was also performed with non-radioactive 2-amino and 2-hydroxy acids based on detection of the products by mass spectrometry and determination of their structure by tandem mass spectrometry, as exemplified by the fragmentation of Ac2-L-Lys-D-Met (m/z of 362.24). Loss of a C-terminal D-Met and of additional H2O led to ions at m/z 213.14 and 185.14, respectively. Ions at m/z 84.10 and 126.11 correspond to the immonium of L-Lys and its acetylated form, respectively.
Preferably, the L,D-transpeptidase activity is assessed by performing a standard exchange assay that is based on incubation of non-radioactive Ac2-L-Lys-D-Ala and D-[^14C]Ala and determination of Ac2-L-Lys-D[^14C]Ala formed by the L,D-transpeptidase catalytic activity, such as disclosed by Mainardi et al. (J. L. Mainardi et al., J. Biol. Chem. 277, 35801 (2002)) as well as in the examples herein.
In an illustrative embodiment of said standard exchange assay, a reaction mixture is provided, which reaction mixture contains (i) purified L,D-transpeptidase, (ii) Ac2-L-Lys-D-Ala, (iii) D-[^14C]Ala and (iv) optionally the candidate inhibitor compound. Then the enzyme reaction is performed until completion, generally during a time period of […], most preferably […], at a temperature range comprised between 36° C. and 38° C., advantageously between 36.5° C. and 37.5° C., most preferably at 37° C. Then, the enzyme reaction is stopped, for example by boiling the resulting reaction product mixture for a time period sufficient to inactivate the enzyme, such as for a period of time ranging from 3 min to 20 min, most preferably a period of time of about 15 min.
Then, the resulting reaction product mixture is centrifuged and a sample collected from the supernatant of centrifugation is analysed by chromatography, preferably by carrying out a reverse phase high-pressure liquid chromatography (rpHPLC), most preferably with isocratic elution.
Detection of the labeled reaction product resulting from the L,D-transpeptidase catalytic activity may be performed simultaneously with said chromatographic step. […]

The subject of assay [2] is Ldtfm. In words: Exchange assay with non-radioactive 2-amino and 2-hydroxy acid acceptors, products detected by mass spectrometry. The class given is biochemical, Enterococcus faecium. The conditions noted are these: for Product Relative intensity (%): ionic current intensity (product/product + substrate), donor Ac2-L-Lys-D-Ala 0.3 mM, acceptor 0.3 mM, Ldtfm (3 g), 1 h at 37° C.; for use as acceptor substrate in the exchange reaction with Ac2-L-Lys-D-Ala as the donor: result in words.
Source text: as §1
To gain insight in the activity of Ldtfm, various 2-amino and 2-hydroxy acids were tested as potential acceptor substrates (Table 2) in an exchange reaction using the model dipeptide substrate Ac2-L-Lys-D-Ala as the donor (FIG. 9F). […] Hydrolysis of the C-terminal D-Ala of Ac2-L-Lys-D-Ala was not detected in the presence of a suitable acceptor substrate, indicating a biosynthetic function for Ldtfm, in contrast to the previously characterized L,D-carboxypeptidase involved in peptidoglycan recycling in E. coli (Templin et al., 1999).

Assay [3] has as its target T1, D-aspartate ligase (membrane or cytoplasmic extracts of E. faecium D359V8) (Enterococcus faecium, UniProt H8L902).
T1 construct: membrane or cytoplasmic extracts (60 μg); endogenous in cells; host or cells: Enterococcus faecium D359V8, crude membrane and cytoplasmic extracts
The assay is described as follows: D-aspartate ligase assay (in vitro addition of D-aspartate onto UDP-MurNac-pentapeptide). The conditions noted are these: 60 μg membrane or cytoplasmic extracts, 2 hours at 37° C. The class given is biochemical. Here is the method:
FIG. 2. […] Crude cytoplasmic extract (60 μg of protein) of E. faecium D359V8 were incubated for 2 h with UDP-MurNac-pentapeptide ([…]), D-[^14C]aspartic acid (0.11 mM, 55 mCi/mmol), ATP (20 mM) and MgCl2 (50 mM). D-[^14C]aspartic acid was separated from [^14C]UDP-MurNac-hexapeptide by descending paper chromatography. […] (+) presence of cytoplasmic extracts; (−) absence of crude extracts.
The assay was performed in a total volume of 25 μl containing Tris-Hcl (100 mM, pH 8.5), MgCl2 (50 mM), ATP (20 mM), D-[^14C]aspartic acid (0.11 mM, 55 mCi/mmol, Isobio, Fleurus, Belgium), UDP-MurNac-pentapeptide (0.15 mM) purified from S. aureus as previously described (Billot-Klein et al., 1997), and membrane or cytoplasmic extracts (60 μg). The reaction mixture was incubated 2 h at 37° C. and the reaction was stopped by boiling the samples for 3 min. […] The products of the reaction were also separated by reverse phase high-pressure liquid chromatography (rpHPLC) on a Hypersil C18 column ([…], 4.6×250 […], Interchrom, Montlugon, France) at a flow rate of 0.5 ml/min using isocratic elution (10 mM ammonium acetate, pH 5.0) and detected by the absorbance at 262 nm and liquid scintillation with a Radioflow Detector (LB508; Perkin Elmer, Courtaboeuf, France) coupled to the HPLC apparatus (L-62000A; Merck, Nogent-Sur-Marne, France). […]

A further assay has as its system E. faecium M512. The conditions noted are these: mutant E. faecium M512; cited from earlier work.
For assay [4], the system named is Ldtfm. In words: In vitro transpeptidation (formation of dimers from monomeric muropeptides, mass spectrometry). The conditions noted are these: pool of three muropeptides, Ldtfm 3 μg, 2 h at 37° C. The class given is biochemical, Enterococcus faecium. As to the method:
FIG. 10 (Ex FIG. 3). […] (A) Ldtfm was incubated with a pool of three monomeric muropeptides containing the disaccharide GlcNAc-MurNAc substituted by three different stem peptides. […] Tetrapeptide-iAsn, L-Ala-D-iGln-L-(M-D-iAsn)Lys-D-Ala; Tripeptide-iAsn, L-Ala-D-iGln-L-(M-D-iAsn)Lys; Tetrapeptide, L-Ala-D-iGln-L-Lys-D-Ala. (B) Fragmentation was performed on the muropeptide lactoyl dimer at m/z 1118.5 which was obtained by ammonium hydroxide treatment of the dimer with a monoisotopic mass of 1927.88. The treatment cleaved off the disaccharide and converted D-iAsn into D-iAsp. (C) Structure of the dimer and inferred fragmentation pattern. […]
To assay for in vitro transpeptidation, the L,D-transpeptidase (3 μg) was incubated with the momomeric muropeptides GlcNAc-MurNAc-L-Ala-D-iGln-L-(M-D-iAsn)Lys-D-Ala (25 nmoles), GlcNAc-MurNAc-L-Ala-D-iGln-L-(M-D-iAsn)Lys (5 nmoles) and GlcNAc-MurNAc-L-Ala-D-iGln-L-Lys-D-Ala (5 nmoles) for 2 h at 37° C. in 25 μl of 5 mM sodium phosphate buffer (pH 6.0). The reaction was stopped by boiling the sample for 3 min and the mixture was centrifuged (10,000×g, 2 min). […] For tandem mass spectrometry analysis, the remaining of the reaction mixture was treated with ammonium hydroxyde to cleave the ether link internal to MurNAc (Arbeloa et al., 2004). The conditions for fragmentation of the resulting lactoyl-peptides with N2 as the collision gas were as previously described (Arbeloa et al., 2004).

“Also recorded” adds a separate entry of the source. Where a SMILES comes first, the peptide text is derived from it. Where no end group is shown, it is not given here. [ ]: non-standard residue; d: D form.

With `CC(=O)NCCCC[C@H](NC(C)=O)C(=O)N[C@H](C)C(=O)O` [Ac2-L-Lys-D-Ala, N^α,N^ε-diacetyl-L-lysyl-D-alanine] (Ac-Lys(Ac)-[dA]-OH), in assay [1], the “use as donor: formation of radioactive peptides with D-[14C]Ala as the acceptor” value (shortened to “use as donor: formation”) was “used as donors”.

Turning to `C[C@@H](O)C(=O)O` [D-lactic acid], in the assay on Ldtfm [2], the “Product Relative intensity (%)” value is 37% and the “use as acceptor substrate in the exchange reaction with Ac2-L-Lys-D-Ala as the donor” value is reported as “Formation of depsipeptides”.

`O=C(O)C[C@@H](O)C(=O)O` [D-malic acid]: in the assay with Ldtfm [2], the “Product Relative intensity (%)” value came out at 10% and the “use as acceptor substrate in the exchange reaction with Ac2-L-Lys-D-Ala as the donor” value is given as “Formation of depsipeptides”.

Consider `NCC(=O)O` [Glycine], for which the “Product Relative intensity (%)” value in the assay on Ldtfm [2] is on record as 15%.

Regarding `N[C@@H](CC(=O)O)C(=O)O` [L-[^14C]aspartate], the “formation of hexapeptide when D-[14C]aspartate is replaced” value in assay [3] is “No hexapeptide was formed”.

For `CC(=O)N[C@H]1[C@@H](OP(=O)(O)OP(=O)(O)OC[C@H]2O[C@@H](n3ccc(=O)[nH]c3=O)[C@H](O)[C@@H]2O)O[C@H](CO)[C@@H](O)[C@@H]1O[C@H](C)C(=O)N[C@@H](C)C(=O)N[C@H](CCC(=O)N[C@@H](CCCCN)C(=O)N[C@H](C)C(=O)N[C@H](C)C(=O)O)C(=O)O` [UDP-MurNAc-pentapeptide, UDP-N-acetylmuramyl-L-Ala-D-iGlu-L-Lys-D-Ala-D-Ala], the “use as donor: formation” value in assay [1] is “not detected”.

With `CC1(C)S[C@@H]2[C@H](NC(=O)[C@H](N)c3ccccc3)C(=O)N2[C@H]1C(=O)O` [ampicillin], in assay [1] (Ldtfm 3 μg, Ac2-L-Lys-D-Ala 0.3 mM, D-[14C]Ala 0.15 mM, various concentration of ampicillin), the “inhibition of Ldtfm in the exchange assay” value is “absence of inhibition; also recorded: not inhibited”. Further, the minimal inhibitory concentration in the assay with E. faecium M512 was greater than 2000 mg/L.

In the case of “GlcNAc-MurNAc-L-Ala-D-iGln-L-(M-D-iAsn)Lys-D-Ala [tetrapeptide-iAsn]”, in the assay on Ldtfm [4], the “use as donor in formation of dimers” value is on record as “formation of dimers”.

For the molecule GlcNAc-MurNAc-L-Ala-D-iGln-L-Lys-D-Ala, in the assay with Ldtfm [4], the “use as acceptor in formation of dimers” value is “not used as an acceptor” and the “use as donor in formation of dimers” value is “formation of dimers”.

With “GlcNAc-MurNAc-L-Ala-D-iGlu-L-(N^ε-D-iAsn)Lys-D-Ala [GlcNAc-MurNAc-tetrapeptide-iAsn]”, the “use as donor: formation” value in assay [1] is given as “used as donors”.

As for “GlcNAc-MurNAc-L-Ala-D-iGlu-L-(N^ε-D-iAsn)Lys-D-Ala-D-Ala [GlcNAc-MurNAc-pentapeptide-iAsn]”, the “use as donor: formation” value in assay [1] is reported as “not detected”.

As for “L-Ala-D-iGlu-L-Lys-D-Ala (A[diGlu]K[dA]) [tetrapeptide]”, in assay [1], the “use as donor: formation” value is given as “used as donors”.

Regarding “L-Ala-D-iGlu-L-Lys-D-Ala-D-Ala [pentapeptide]”, the “use as donor: formation” value in assay [1] is recorded as “not detected”.

As for “N^α,N^ε-diacetyl-L-lysine-D-alanyl-D-alanine [Ac2-L-Lys-D-Ala-D-Ala]”, the “use as donor: formation” value in assay [1] was “not detected”.

On to “UDP-MurNAc-L-Ala-D-iGlu-L-Lys-D-Ala [UDP-MurNAc-tetrapeptide]”, for which the “use as donor: formation” value in assay [1] is reported as “used as donors”.
